Test results taken from ChEMBL document CHEMBL4507319 (2021).

What was measured:
[1] = target: Phosphatidylinositol 4,5-bisphosphate 3-kinase catalytic subunit beta isoform (Homo sapiens) (UniProt P42338); conditions: Compound concentration 1000.0 nM
[2] = target: Mitogen-activated protein kinase kinase kinase 4 (Homo sapiens) (UniProt Q9Y6R4); conditions: Compound concentration 1000.0 nM
[3] = system: Mast/stem cell growth factor receptor Kit (Homo sapiens), P10721 [V559D,V654A]; conditions: Compound concentration 1000.0 nM
[4] = target: Phosphatidylinositol 5-phosphate 4-kinase type-2 gamma (Homo sapiens) (UniProt Q8TBX8); conditions: Compound concentration 1000.0 nM
Sequence of Phosphatidylinositol 5-phosphate 4-kinase type-2 gamma (Homo sapiens) (Q8TBX8 whole entry): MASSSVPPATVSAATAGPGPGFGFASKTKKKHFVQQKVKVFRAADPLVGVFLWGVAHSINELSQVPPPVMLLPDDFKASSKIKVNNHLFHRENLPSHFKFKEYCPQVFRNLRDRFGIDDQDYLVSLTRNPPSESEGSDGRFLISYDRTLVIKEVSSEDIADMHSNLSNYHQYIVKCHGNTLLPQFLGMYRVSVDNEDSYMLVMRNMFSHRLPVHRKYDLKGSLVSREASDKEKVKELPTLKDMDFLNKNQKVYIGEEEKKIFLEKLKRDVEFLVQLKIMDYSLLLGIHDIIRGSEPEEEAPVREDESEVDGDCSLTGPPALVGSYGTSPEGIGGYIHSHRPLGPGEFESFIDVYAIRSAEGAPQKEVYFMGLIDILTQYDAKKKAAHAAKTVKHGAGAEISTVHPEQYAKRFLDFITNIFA

[5] = target: Serine/threonine-protein kinase LATS1 (Homo sapiens) (UniProt O95835); conditions: Compound concentration 1000.0 nM
[6] = target: Cyclin-dependent kinase 14 (Homo sapiens) (UniProt O94921); conditions: Compound concentration 1000.0 nM
Sequence of Cyclin-dependent kinase 14 (Homo sapiens) (O94921 whole entry): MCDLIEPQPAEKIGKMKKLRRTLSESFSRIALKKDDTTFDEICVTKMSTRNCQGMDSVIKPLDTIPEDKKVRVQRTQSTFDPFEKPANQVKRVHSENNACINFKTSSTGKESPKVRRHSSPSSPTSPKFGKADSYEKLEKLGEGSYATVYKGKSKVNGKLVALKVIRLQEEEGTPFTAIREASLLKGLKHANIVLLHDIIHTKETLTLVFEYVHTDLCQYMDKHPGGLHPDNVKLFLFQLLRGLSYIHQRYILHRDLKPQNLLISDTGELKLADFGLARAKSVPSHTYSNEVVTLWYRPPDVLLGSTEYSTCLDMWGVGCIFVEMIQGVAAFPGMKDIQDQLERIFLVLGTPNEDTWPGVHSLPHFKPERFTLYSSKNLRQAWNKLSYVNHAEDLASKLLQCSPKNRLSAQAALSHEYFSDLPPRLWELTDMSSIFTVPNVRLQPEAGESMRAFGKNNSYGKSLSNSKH

[7] = target: Serine/threonine-protein kinase mTOR (Homo sapiens) (UniProt P42345); conditions: Compound concentration 1000.0 nM
[8] = target: 5'-AMP-activated protein kinase catalytic subunit alpha-1 (Homo sapiens, UniProt Q13131); conditions: Compound concentration 1000.0 nM
[9] = target: SRSF protein kinase 1 (Homo sapiens) (UniProt Q96SB4); conditions: Compound concentration 1000.0 nM
Sequence of SRSF protein kinase 1 (Homo sapiens) (Q96SB4 whole entry): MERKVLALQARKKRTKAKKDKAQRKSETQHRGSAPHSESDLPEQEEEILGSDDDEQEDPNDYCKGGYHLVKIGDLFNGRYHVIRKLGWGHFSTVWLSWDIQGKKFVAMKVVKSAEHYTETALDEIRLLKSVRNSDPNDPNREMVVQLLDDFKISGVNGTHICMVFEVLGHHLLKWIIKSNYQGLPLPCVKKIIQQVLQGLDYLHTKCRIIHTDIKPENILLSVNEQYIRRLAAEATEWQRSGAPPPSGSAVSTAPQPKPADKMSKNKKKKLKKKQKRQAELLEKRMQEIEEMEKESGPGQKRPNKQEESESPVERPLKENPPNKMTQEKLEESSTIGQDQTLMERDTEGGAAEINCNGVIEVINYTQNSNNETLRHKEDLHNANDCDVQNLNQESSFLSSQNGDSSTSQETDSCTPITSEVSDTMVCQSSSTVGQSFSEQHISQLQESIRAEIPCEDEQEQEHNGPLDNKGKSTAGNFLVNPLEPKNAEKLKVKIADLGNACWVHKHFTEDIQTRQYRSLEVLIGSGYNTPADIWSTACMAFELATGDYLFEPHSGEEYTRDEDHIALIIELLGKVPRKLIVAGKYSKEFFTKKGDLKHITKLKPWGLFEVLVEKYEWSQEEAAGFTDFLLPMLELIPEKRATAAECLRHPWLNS

[10] = target: Rho-associated protein kinase 2 (Homo sapiens) (UniProt O75116); conditions: Compound concentration 1000.0 nM
[11] = target: T1, Myosin-IIIb (Homo sapiens) (UniProt Q8WXR4); conditions: Compound concentration 1000.0 nM
T1 sequence (whole entry): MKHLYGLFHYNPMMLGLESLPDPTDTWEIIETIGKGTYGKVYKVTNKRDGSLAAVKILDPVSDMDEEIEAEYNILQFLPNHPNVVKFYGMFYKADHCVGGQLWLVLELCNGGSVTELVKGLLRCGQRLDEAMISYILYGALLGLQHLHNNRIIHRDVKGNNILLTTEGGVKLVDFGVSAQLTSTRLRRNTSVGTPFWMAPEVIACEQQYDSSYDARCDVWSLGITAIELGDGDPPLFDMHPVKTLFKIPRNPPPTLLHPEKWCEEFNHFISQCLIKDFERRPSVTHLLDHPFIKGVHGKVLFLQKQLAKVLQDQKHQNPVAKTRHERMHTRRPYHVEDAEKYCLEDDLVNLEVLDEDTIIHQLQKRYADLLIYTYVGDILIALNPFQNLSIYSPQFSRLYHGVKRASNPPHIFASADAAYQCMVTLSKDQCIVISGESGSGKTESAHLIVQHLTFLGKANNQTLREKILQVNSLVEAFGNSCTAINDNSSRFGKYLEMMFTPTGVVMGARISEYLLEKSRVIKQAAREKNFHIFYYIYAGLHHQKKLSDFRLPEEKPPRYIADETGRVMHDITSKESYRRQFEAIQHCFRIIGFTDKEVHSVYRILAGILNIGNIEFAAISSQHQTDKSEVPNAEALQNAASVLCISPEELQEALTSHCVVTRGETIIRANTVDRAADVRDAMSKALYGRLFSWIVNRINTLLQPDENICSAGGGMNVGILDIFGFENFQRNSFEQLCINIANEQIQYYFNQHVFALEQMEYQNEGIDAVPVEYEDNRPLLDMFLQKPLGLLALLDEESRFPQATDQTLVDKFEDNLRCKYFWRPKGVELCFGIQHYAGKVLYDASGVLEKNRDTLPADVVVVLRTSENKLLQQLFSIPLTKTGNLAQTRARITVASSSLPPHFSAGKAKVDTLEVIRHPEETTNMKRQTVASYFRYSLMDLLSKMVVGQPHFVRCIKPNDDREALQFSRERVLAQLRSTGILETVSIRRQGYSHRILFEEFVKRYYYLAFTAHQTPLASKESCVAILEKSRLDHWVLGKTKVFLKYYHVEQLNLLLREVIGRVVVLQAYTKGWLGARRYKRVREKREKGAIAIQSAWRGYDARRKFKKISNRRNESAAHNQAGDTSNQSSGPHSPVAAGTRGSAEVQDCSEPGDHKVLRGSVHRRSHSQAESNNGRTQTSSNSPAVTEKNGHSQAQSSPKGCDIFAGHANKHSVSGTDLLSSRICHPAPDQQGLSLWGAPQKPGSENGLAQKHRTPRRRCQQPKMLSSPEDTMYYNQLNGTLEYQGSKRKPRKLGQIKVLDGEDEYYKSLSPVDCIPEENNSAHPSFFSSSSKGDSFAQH

[12] = target: T2, Inhibitor of nuclear factor kappa-B kinase subunit epsilon (Homo sapiens) (UniProt Q14164); conditions: Compound concentration 1000.0 nM
T2 sequence (whole entry): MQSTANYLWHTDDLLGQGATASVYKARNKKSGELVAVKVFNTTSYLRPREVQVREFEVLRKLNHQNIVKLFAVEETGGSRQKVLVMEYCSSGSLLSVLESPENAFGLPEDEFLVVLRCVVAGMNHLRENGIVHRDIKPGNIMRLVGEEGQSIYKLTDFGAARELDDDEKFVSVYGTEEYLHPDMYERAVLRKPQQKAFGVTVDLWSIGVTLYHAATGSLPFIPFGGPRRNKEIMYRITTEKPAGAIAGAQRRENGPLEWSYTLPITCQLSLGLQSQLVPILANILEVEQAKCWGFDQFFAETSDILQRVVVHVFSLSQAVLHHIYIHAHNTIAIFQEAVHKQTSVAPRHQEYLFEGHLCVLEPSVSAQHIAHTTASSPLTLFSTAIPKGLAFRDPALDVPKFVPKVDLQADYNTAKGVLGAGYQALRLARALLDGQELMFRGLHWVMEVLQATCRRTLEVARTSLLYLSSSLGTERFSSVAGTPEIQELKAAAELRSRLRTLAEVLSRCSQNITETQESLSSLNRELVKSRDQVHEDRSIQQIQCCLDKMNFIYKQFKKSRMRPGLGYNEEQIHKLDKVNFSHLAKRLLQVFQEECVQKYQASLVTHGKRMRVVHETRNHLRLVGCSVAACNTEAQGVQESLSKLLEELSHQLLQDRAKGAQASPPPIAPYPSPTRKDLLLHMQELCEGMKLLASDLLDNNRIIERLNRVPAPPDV

[13] = target: Death-associated protein kinase 1 (Homo sapiens) (UniProt P53355); conditions: Compound concentration 1000.0 nM
Sequence of Death-associated protein kinase 1 (Homo sapiens) (P53355 whole entry, looked up): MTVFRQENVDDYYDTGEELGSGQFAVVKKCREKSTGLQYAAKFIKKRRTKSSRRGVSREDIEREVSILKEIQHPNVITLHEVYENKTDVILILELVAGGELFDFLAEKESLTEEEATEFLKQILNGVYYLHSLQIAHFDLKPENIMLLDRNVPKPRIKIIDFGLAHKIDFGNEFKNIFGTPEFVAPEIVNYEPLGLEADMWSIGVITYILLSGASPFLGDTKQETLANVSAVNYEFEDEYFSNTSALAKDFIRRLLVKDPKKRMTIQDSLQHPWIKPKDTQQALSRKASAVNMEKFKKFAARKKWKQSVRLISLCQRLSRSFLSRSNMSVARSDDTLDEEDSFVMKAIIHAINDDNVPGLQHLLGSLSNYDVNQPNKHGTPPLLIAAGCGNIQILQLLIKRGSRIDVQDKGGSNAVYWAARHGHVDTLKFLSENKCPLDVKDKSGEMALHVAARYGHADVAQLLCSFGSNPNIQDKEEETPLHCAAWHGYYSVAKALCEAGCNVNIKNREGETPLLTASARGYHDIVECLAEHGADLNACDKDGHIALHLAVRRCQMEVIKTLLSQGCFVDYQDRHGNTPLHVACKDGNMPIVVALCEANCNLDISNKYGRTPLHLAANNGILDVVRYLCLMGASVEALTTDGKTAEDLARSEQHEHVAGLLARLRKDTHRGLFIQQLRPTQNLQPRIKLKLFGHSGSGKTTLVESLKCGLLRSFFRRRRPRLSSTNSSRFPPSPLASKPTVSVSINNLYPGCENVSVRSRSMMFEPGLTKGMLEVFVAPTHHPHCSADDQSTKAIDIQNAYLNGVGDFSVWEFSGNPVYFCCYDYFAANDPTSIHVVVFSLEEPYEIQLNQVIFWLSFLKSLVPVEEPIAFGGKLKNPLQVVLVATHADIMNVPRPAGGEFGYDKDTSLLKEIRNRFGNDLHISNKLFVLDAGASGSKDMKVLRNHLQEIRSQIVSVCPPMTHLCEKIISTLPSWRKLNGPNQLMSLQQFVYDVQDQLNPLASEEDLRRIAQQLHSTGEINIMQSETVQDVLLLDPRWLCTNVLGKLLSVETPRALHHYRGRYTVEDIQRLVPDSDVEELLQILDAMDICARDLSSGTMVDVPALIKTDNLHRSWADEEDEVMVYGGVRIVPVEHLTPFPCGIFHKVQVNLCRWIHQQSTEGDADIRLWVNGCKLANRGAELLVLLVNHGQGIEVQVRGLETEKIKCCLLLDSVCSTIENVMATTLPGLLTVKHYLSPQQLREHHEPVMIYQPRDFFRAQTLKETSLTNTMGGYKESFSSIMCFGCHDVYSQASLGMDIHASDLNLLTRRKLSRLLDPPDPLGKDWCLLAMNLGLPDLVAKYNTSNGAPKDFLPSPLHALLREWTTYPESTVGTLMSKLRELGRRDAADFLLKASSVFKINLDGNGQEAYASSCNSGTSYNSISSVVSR

[14] = system: Epidermal growth factor receptor (Homo sapiens), P00533 [UNDEFINED MUTATION]; conditions: Compound concentration 1000.0 nM
[15] = target: STE20-like serine/threonine-protein kinase (Homo sapiens) (UniProt Q9H2G2); conditions: Compound concentration 1000.0 nM
[16] = target: 5-hydroxytryptamine receptor 2B (Homo sapiens) (UniProt P41595); conditions: Compound concentration 10.0 uM
Sequence of 5-hydroxytryptamine receptor 2B (Homo sapiens) (P41595 whole entry): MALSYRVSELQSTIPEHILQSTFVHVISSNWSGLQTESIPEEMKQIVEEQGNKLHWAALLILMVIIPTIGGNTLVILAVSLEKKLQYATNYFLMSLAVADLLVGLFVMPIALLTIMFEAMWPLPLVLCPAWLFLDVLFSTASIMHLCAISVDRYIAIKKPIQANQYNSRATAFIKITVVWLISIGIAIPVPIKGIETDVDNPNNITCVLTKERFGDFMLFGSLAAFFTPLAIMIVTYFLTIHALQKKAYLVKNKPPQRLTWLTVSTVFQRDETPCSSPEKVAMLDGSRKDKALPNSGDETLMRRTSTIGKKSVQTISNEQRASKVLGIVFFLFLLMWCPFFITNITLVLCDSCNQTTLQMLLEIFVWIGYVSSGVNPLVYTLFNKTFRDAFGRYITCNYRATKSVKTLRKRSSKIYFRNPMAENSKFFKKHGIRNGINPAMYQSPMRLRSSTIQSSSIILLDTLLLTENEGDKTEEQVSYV

[17] = target: Hormonally up-regulated neu tumor-associated kinase (Homo sapiens) (UniProt P57058); conditions: Compound concentration 1000.0 nM

Sequence of Mitogen-activated protein kinase kinase kinase 4 (Homo sapiens) (Q9Y6R4 whole entry): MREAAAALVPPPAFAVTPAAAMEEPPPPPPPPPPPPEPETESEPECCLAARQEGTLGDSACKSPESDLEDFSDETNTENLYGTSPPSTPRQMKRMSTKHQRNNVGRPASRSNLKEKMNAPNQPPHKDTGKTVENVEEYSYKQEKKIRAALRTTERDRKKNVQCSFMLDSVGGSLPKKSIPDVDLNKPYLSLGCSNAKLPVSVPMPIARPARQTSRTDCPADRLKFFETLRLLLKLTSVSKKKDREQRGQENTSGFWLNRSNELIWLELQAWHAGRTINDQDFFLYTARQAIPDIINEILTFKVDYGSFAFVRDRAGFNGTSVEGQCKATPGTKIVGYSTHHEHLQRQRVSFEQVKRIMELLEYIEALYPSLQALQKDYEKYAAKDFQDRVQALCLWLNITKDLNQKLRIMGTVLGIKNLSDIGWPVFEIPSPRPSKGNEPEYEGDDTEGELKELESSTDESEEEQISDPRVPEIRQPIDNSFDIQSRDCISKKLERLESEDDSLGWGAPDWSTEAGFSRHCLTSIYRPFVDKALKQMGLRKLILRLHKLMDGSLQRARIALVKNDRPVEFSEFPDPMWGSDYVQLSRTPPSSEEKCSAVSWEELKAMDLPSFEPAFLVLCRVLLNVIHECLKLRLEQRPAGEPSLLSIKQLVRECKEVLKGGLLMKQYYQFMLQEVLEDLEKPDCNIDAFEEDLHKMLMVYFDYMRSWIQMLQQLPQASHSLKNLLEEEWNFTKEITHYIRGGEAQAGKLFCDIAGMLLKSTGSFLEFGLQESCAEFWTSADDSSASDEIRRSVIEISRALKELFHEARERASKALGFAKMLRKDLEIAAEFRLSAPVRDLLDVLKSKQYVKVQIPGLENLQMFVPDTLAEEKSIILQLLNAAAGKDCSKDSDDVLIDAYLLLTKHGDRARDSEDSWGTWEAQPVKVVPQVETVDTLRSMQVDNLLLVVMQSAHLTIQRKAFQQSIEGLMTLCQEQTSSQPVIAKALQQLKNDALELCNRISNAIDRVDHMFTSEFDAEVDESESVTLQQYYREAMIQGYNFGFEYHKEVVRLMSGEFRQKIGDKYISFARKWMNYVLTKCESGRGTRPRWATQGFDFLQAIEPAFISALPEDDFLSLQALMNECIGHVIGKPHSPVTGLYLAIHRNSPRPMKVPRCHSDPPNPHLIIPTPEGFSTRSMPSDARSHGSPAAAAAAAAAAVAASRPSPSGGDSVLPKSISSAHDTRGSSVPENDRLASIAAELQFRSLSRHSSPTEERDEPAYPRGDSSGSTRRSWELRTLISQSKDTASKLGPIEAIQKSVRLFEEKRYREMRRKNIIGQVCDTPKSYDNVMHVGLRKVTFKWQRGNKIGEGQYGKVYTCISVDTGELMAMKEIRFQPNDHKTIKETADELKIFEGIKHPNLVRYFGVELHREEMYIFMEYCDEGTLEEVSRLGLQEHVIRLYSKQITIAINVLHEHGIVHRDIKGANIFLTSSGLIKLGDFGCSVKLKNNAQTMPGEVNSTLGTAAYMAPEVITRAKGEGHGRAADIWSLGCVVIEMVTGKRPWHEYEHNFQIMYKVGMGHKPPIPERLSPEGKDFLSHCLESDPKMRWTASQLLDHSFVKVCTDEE

Structure (SMILES)	residual activity [1]	residual activity [2]	residual activity [3]	residual activity [4]	residual activity [5]	residual activity [6]	residual activity [7]	residual activity [8]	residual activity [9]	residual activity [10]	residual activity [11]	residual activity [12]	residual activity [13]	residual activity [14]	residual activity [15]	inhibition [16]	residual activity [17]
CC1=C(C#N)C(c2ccc3c(c2)c(NC(=O)c2ccccc2C)nn3C)C(C#N)=C(C)N1 [BAY-974]	86%	84%	99%	92%	85%	100%	75%	77%	89%	93%	100%	100%	89%	93%	88%	11.4%	78%
CCc1ccccc1C(=O)Nc1n[nH]c2c(C)c(F)c(C3C(C#N)=C(C)N(C)C(C)=C3C#N)cc12 [BAY-3827]	100%	72%	100%	77%	100%	83%	100%	7.5%	89%	100%	77%	68%	100%	100%	100%	32.5%	100%
